Measured values as given in patent publication US9186344B2, “Glycogen or polysaccharide storage disease treatment method” (Baylor Research Institute, priority 2004, dated 2015).

Assays:
Assay type in all cases: in vivo, human
[1] = tested on: GSDII patient; experiment: Clinical course on triheptanoin diet, Example 2 patient
Description: Clinical Course. Following informed consent, the patient agreed to enter an approved IRB Protocol for dietary therapy with triheptanoin oil. […] Maximal inspiratory and expiratory pressures were 60 cm of water. […] And pO2=62.
The oral diet consisted of 2900 Kcal on admission. […] Total caloric intake was maintained at ˜2800 per day during his 30 day admission.
Initially, the patient required assistance and supervision with grooming, upper and lower extremity dressing, bathing, and toileting. The patient also required maximal assistance with ambulation and transfers from bed to wheelchair. […] They continued to require supervision, but without assistance, with transfers from bed to wheelchair and to toilet and shower. They had clearly made improvements in strength and endurance with exercise.

[2] = tested on: Adult-Onset Glycogen Storage Disease II (Pompe's) patient; experiment: Plasma amino acids during initiation of anaplerotic therapy (C7 diet), Example 1 patient; conditions: for Plasma ASPARTATE: normal (0-10); for Plasma CITRULLINE: normal (11-51); for Plasma ARGININE: normal (20-122); for Plasma TRYPTOPHAN: normal (23-86); for Plasma TYROSINE: normal (30-100); for Plasma PHENYLALANINE: normal (35-83); for Plasma ORNITHINE: normal (36-118); for Plasma ISOLEUCINE: normal (39-119); for Plasma LEUCINE: normal (60-204); for Plasma VALINE: normal (108-295); for Plasma ALANINE: normal (162-572); for Plasma GLUTAMINE: normal (424-720); for Plasma Total Amino Acids: normal (1540-4415)
Description: Clinical and Biochemical Course on Therapy. […] Esophageal dysmotility was documented. A percutaneous endoscopic gastrostomy (PEG) was placed on the sixth hospital day.
The diet was based on vivonex and ˜1500 Kcal was given by nasogastric tube, on admission. […] Total caloric intake was raised from ˜1500 to 1700 to 1900 per day with these dietary changes during […] 33 day admission.
The levels of Alanine and Glutamine were low compared to the adult normal ranges. While the levels of the branched-chain amino acids (BCAA=Leucine, Valine, & Isoleucine) were within the adult normal ranges. The reduced levels of Alanine and Glutamine have been observed often in this disease and has led to the high protein—low carbohydrate diet and/or alanine supplementation. […] Glutamine increased nearly 2-fold as did the branched chain amino acids (BCAAs). The levels of these amino acids remained in the normal range while receiving the C7 diet. However, the diet was interrupted on day 4 & 5 while awaiting placement of the PEG for gastrostomy feeding. The levels of each of these amino acids promptly fell to admission levels (Table 2: 65 & 84 hour samples). With resumption of the diet via gastrostomy, all levels returned to (or above) the normal ranges in 24 hours. These amino acid levels remained normal on this odd-carbon triglyceride diet therapy.

[3] = tested on: adult-onset GSD II patient; experiment: Urinary organic acids / blood acylcarnitines, Example 1 patient; conditions: C7 increased from 26 to 40% of total caloric intake (1.0 to 2.0 gm/Kg/day)
Procedure: Organic Acids may be measured as follows. Organic acids in urine specimens are determined with isolation by Liquid Partition Chromatography (LPC) and quantitative Gas Chromatography-Mass Spectrometry (GCMS) using an internal standard. The specimen is derivatized to form pentafluorobenzyl oximes (PFBO) of oxo-acids and the organic acids isolated by Liquid Partition chromatography on silicic acid hydrated with dilute sulfuric acid and eluted with mixtures of tert-Amyl alcohol and chloroform. After drying, the organic acids are derivatized to form volatile trimethylsilyl (TMS) derivatives for separation by capillary Gas Chromatography (GC) with temperature programming. Detection is by Mass Spectrometry (MS) with identification of the organic acids by their mass spectra. Organic acids are quantified by peak areas of reconstructed ion chromatograms with internal standards and calibration curves.
Acylcarnitine Profiles. […] An automated sample introduction system delivers the samples to the electrospray tandem mass spectrometer (ESI-MS/MS) operating in the multiple channel analysis mode in which acylcarnitines are identified, profiled, and quantified with stable isotopically labeled internal standards. This test also provides quantification of free, sum of acylcarnitines, and total carnitine levels. […]

[4] = thirteen hours after initiating the C7 diet

Which results are given for `CCCCCCC(=O)OCC(COC(=O)CCCCCC)OC(=O)CCCCCC` [C7, triheptanoin]?
increase in total vital capacity ([1]; at discharge compared to admission, diet plus physical therapy): 700 mL; functional status at discharge ([1]; intensive physical therapy and diet, 30 day admission): independent with grooming, upper and lower extremity dressing, toileting, and locomotion with a manual wheelchair; Plasma ASPARTATE ([2]; 13 hrs, C7 = 1.0 gm/Kg): 44 µM; Plasma CITRULLINE ([2]; 13 hrs, C7 = 1.0 gm/Kg): 1 µM; Plasma ARGININE ([2]; 13 hrs, C7 = 1.0 gm/Kg): 96 µM; Plasma TRYPTOPHAN ([2]; 13 hrs, C7 = 1.0 gm/Kg): 121 µM; Plasma TYROSINE ([2]; 13 hrs, C7 = 1.0 gm/Kg): 110 µM; Plasma PHENYLALANINE ([2]; 13 hrs, C7 = 1.0 gm/Kg): 101 µM; Plasma ORNITHINE ([2]; 13 hrs, C7 = 1.0 gm/Kg): 78 µM; Plasma ISOLEUCINE ([2]; 13 hrs, C7 = 1.0 gm/Kg): 81 uM/L; Plasma LEUCINE ([2]; 13 hrs, C7 = 1.0 gm/Kg): 154 uM/L; Plasma VALINE ([2]; 13 hrs, C7 = 1.0 gm/Kg): 333 uM/L; Plasma ALANINE ([2]; 13 hrs, C7 = 1.0 gm/Kg): 551 uM/L; Plasma GLUTAMINE ([2]; 13 hrs, C7 = 1.0 gm/Kg): 827 uM/L; Plasma Total Amino Acids ([2]; 13 hrs, C7 = 1.0 gm/Kg): 3673 µM; Plasma ASPARTATE ([2]; 41 hrs, C7 = 1.0 gm/Kg): 112 µM; Plasma CITRULLINE ([2]; 41 hrs, C7 = 1.0 gm/Kg): 43 µM; Plasma ARGININE ([2]; 41 hrs, C7 = 1.0 gm/Kg): 93 µM; Plasma TRYPTOPHAN ([2]; 41 hrs, C7 = 1.0 gm/Kg): 43 µM; Plasma TYROSINE ([2]; 41 hrs, C7 = 1.0 gm/Kg): 62 µM; Plasma PHENYLALANINE ([2]; 41 hrs, C7 = 1.0 gm/Kg): 156 µM; Plasma ORNITHINE ([2]; 41 hrs, C7 = 1.0 gm/Kg): 163 µM; Plasma ISOLEUCINE ([2]; 41 hrs, C7 = 1.0 gm/Kg): 138 uM/L; Plasma LEUCINE ([2]; 41 hrs, C7 = 1.0 gm/Kg): 266 uM/L; Plasma VALINE ([2]; 41 hrs, C7 = 1.0 gm/Kg): 384 uM/L; Plasma ALANINE ([2]; 41 hrs, C7 = 1.0 gm/Kg): 450 uM/L; Plasma GLUTAMINE ([2]; 41 hrs, C7 = 1.0 gm/Kg): 424 uM/L; Plasma Total Amino Acids ([2]; 41 hrs, C7 = 1.0 gm/Kg): 4160 µM; Plasma ASPARTATE ([2]; 108 hrs, C7 = 1.5 gm/Kg): 50 µM; Plasma CITRULLINE ([2]; 108 hrs, C7 = 1.5 gm/Kg): 35 µM; Plasma ARGININE ([2]; 108 hrs, C7 = 1.5 gm/Kg): 102 µM; Plasma TRYPTOPHAN ([2]; 108 hrs, C7 = 1.5 gm/Kg): 40 µM; Plasma TYROSINE ([2]; 108 hrs, C7 = 1.5 gm/Kg): 56 µM; Plasma PHENYLALANINE ([2]; 108 hrs, C7 = 1.5 gm/Kg): 90 µM; Plasma ORNITHINE ([2]; 108 hrs, C7 = 1.5 gm/Kg): 122 µM; Plasma ISOLEUCINE ([2]; 108 hrs, C7 = 1.5 gm/Kg): 144 uM/L; Plasma LEUCINE ([2]; 108 hrs, C7 = 1.5 gm/Kg): 238 uM/L; Plasma VALINE ([2]; 108 hrs, C7 = 1.5 gm/Kg): 304 uM/L; Plasma ALANINE ([2]; 108 hrs, C7 = 1.5 gm/Kg): 307 uM/L; Plasma GLUTAMINE ([2]; 108 hrs, C7 = 1.5 gm/Kg): 584 uM/L; Plasma Total Amino Acids ([2]; 108 hrs, C7 = 1.5 gm/Kg): 3568 µM; Plasma ASPARTATE ([2]; 132 hrs, C7 = 1.5 gm/Kg): 42 µM; Plasma CITRULLINE ([2]; 132 hrs, C7 = 1.5 gm/Kg): 25 µM; Plasma ARGININE ([2]; 132 hrs, C7 = 1.5 gm/Kg): 97 µM; Plasma TRYPTOPHAN ([2]; 132 hrs, C7 = 1.5 gm/Kg): 40 µM; Plasma TYROSINE ([2]; 132 hrs, C7 = 1.5 gm/Kg): 46 µM; Plasma PHENYLALANINE ([2]; 132 hrs, C7 = 1.5 gm/Kg): 84 µM; Plasma ORNITHINE ([2]; 132 hrs, C7 = 1.5 gm/Kg): 95 µM; Plasma ISOLEUCINE ([2]; 132 hrs, C7 = 1.5 gm/Kg): 128 uM/L; Plasma LEUCINE ([2]; 132 hrs, C7 = 1.5 gm/Kg): 220 uM/L; Plasma VALINE ([2]; 132 hrs, C7 = 1.5 gm/Kg): 269 uM/L; Plasma ALANINE ([2]; 132 hrs, C7 = 1.5 gm/Kg): 277 uM/L; Plasma GLUTAMINE ([2]; 132 hrs, C7 = 1.5 gm/Kg): 519 uM/L; Plasma Total Amino Acids ([2]; 132 hrs, C7 = 1.5 gm/Kg): 3296 µM; time to restoration of Alanine and Glutamine deficits ([2]; FIG. 5, Triheptanoin diet only): ≤ 13 h; time for amino acid levels to return to (or above) normal ranges ([2]; after resumption of the diet via gastrostomy): ≤ 24 h; increase of plasma Glutamine [2, 4]: ~2 fold; increase of plasma branched chain amino acids (BCAAs) [2, 4]: ~2 fold; increase of plasma alanine level ([2]; thirteen hours after initiating the C7 diet by nasogastric tube): 4 fold; propionyl overload from the metabolism of heptanoate [3]: without any evidence for propionyl overload
